Data set [1] deals with Cytochrome P450 2E1 (Homo sapiens, UniProt P05181). The following applies: bti-tn-5b1-4.
The target of data set [2] is Tyrosine-protein kinase Lck (Homo sapiens, UniProt P06239). As to the kind of experiment: DRUGMATRIX: Protein Tyrosine Kinase, LCK enzyme inhibition (substrate: Poly(Glu:Tyr)). Type of data set: cell-based, Insect cells. As to conditions: Not Active = under 50% inhibition at 10 µM.
For data set [3], the target named is T1, Interstitial collagenase (Homo sapiens, UniProt P03956).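 Further: MMP-1 enzyme inhibition assay using a peptide substrate; in other assays of this panel Not Active means under 50% inhibition at 10 µM.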
T1 sequence (P03956 whole entry): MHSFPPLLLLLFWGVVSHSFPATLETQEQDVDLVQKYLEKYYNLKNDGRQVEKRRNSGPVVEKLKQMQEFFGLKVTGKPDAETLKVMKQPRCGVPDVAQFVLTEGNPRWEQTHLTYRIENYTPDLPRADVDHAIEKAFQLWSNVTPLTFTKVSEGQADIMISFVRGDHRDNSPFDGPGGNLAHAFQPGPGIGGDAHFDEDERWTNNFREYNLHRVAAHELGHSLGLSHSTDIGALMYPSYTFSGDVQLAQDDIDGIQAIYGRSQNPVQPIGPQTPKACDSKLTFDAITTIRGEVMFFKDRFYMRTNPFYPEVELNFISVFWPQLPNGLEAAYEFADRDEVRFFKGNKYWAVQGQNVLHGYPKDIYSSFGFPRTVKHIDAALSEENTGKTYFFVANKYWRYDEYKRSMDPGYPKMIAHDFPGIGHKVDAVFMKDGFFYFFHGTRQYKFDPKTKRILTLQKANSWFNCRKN
As to the kind of experiment: biochemical. Type of data set: tissue-based, Rheumatoid synovial fibroblasts.

For data set [4], the target named is T2, C-X-C chemokine receptor type 2 (Homo sapiens, UniProt P25025). Further: in other assays of this panel Not Active means under 50% inhibition at 10 µM.
T2 sequence (P25025 whole entry): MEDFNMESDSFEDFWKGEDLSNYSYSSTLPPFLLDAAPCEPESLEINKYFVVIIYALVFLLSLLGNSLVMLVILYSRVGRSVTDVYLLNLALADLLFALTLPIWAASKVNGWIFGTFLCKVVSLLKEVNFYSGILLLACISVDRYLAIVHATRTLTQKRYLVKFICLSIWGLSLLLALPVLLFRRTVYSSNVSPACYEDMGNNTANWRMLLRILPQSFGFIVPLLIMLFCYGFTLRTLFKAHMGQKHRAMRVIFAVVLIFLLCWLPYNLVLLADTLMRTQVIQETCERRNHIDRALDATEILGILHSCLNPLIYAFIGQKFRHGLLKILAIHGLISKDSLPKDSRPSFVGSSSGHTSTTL
Type of data set: cell membranes, Membrane. The following applies: cho-k1.

In data set [5] the target is T3, Vasoactive intestinal polypeptide receptor 1 (Homo sapiens, UniProt P32241). Further: in other assays of this panel Not Active means under 50% inhibition at 10 µM.
T3 sequence (P32241 whole entry): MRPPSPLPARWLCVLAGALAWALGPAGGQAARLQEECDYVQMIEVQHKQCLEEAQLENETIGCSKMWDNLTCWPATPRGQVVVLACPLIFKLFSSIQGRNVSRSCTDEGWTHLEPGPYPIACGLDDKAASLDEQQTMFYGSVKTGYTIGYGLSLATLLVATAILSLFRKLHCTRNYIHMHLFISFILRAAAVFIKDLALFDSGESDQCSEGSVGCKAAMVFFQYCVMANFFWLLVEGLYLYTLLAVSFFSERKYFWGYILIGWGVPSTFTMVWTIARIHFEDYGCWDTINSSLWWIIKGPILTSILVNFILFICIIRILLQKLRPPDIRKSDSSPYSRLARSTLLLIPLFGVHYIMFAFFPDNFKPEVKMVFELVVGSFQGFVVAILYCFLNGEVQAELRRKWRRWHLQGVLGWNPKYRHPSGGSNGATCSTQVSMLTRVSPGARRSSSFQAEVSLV
Type of data set: cell membranes, Membrane. As to conditions: ht-29.

In data set [6] the target is T4, Muscarinic acetylcholine receptor M2 (Homo sapiens, UniProt P08172). Further: in other assays of this panel Not Active means under 50% inhibition at 10 µM.
T4 sequence (P08172 whole entry): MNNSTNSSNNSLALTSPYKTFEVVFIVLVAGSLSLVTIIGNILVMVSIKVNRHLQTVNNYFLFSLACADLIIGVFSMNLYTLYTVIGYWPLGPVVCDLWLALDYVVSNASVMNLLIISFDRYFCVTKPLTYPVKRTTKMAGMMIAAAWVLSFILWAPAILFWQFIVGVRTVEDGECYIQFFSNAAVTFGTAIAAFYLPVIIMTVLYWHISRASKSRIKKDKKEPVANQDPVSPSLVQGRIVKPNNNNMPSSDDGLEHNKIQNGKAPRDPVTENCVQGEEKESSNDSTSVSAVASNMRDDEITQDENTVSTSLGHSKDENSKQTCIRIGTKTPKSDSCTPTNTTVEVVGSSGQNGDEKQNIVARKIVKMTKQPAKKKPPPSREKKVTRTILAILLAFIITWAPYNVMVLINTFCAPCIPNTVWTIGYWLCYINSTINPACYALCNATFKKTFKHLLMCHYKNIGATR
Type of data set: cell membranes, CHO-K1, Membrane.

Data set [7] deals with T5, Substance-K receptor (Homo sapiens, UniProt P21452).
T5 sequence (P21452 whole entry): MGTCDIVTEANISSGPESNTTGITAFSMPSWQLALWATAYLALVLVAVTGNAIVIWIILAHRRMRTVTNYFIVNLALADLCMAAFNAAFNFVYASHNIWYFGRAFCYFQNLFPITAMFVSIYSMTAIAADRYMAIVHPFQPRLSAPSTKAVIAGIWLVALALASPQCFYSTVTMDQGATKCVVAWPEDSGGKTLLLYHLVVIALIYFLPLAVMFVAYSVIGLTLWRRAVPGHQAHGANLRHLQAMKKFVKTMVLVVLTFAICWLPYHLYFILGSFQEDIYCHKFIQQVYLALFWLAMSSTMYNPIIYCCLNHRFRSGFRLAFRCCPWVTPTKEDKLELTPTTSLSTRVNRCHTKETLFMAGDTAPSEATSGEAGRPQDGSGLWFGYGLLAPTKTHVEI
Type of data set: cell membranes, CHO, Membrane.
Wherever Ki is given: in other assays of this panel Not Active means under 50% inhibition at 10 µM.

Cytochrome P450 2E1, sequence (P05181 whole entry): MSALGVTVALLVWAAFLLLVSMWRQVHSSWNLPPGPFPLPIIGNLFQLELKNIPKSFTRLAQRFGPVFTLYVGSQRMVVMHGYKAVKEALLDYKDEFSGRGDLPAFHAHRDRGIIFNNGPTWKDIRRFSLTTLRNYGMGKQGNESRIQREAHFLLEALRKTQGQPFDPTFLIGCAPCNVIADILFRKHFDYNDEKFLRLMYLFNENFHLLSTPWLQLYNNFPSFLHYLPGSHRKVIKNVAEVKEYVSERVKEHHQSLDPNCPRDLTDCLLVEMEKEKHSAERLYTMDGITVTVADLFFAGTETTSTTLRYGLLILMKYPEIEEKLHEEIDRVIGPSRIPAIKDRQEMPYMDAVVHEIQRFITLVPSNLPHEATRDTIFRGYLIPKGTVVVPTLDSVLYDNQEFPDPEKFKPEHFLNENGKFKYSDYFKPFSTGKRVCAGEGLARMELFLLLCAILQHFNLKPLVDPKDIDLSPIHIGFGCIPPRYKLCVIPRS
Tyrosine-protein kinase Lck, sequence (P06239 whole entry): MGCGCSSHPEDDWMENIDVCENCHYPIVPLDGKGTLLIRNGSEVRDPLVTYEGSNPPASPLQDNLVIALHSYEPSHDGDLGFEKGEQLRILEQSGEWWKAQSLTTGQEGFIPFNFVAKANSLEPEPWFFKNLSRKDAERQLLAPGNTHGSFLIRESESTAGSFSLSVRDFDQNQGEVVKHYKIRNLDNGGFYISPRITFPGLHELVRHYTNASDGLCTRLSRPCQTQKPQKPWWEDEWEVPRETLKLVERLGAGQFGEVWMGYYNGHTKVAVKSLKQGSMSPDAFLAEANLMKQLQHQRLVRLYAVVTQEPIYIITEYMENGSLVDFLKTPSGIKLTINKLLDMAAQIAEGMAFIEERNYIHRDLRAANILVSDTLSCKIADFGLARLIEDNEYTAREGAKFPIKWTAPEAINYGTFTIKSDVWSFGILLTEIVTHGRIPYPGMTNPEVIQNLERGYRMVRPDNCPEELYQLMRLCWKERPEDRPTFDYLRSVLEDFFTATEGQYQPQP

Broadly, the IC50 is the midpoint of a concentration-inhibition curve. Broadly, the Ki is the dissociation constant of the complex between target and ligand, obtained from inhibition or displacement. For the compound `CCCCC(=O)N(Cc1ccc(-c2ccccc2-c2nnn[nH]2)cc1)[C@H](C(=O)O)C(C)C`, the IC50 result in data set [1], in data set [2] (insect cells), in data set [3], in data set [4], in data set [5] and in data set [6] (cho-k1) was “Not Active” throughout. Besides, in data set [7] (cho), the IC50 result is reported as “Not Active”. For the same compound, in data set [1], the inhibition constant Ki entry was “Not Active”.
On to `O=C(O)COc1ccc(C(=O)c2cccs2)c(Cl)c1Cl`, for which the IC50 entry in data set [1], in data set [2] (insect cells), in data set [3], in data set [4], in data set [5] and in data set [6] (cho-k1) was “Not Active” in each case. Further, the IC50 result in data set [7] (cho) is “Not Active”. Moreover, the Ki result in data set [1] is “Not Active”.
On to `CN1[C@@H]2CC[C@H]1C[C@@H](OC(c1ccccc1)c1ccccc1)C2` [BENZTROPINE], for which the IC50 entry in data set [1], in data set [2] (insect cells), in data set [3], in data set [4], in data set [5] and in data set [7] (cho) was “Not Active” each time. In addition, in data set [1], the Ki entry is recorded as “Not Active”.
On to `C[C@@](Cc1ccc(O)c(O)c1)(NN)C(=O)O.O` [CARBIDOPA], for which the concentration for half-maximal inhibition (IC50) result in data set [1] was “Not Active”; in data set [2] (read-out: IC50) it was 6.8 µM; in data set [3], “Not Active”; in data set [4] it was “Not Active”; in data set [5], “Not Active”; in data set [6] (cho-k1), “Not Active”. The IC50 entry in data set [7] (cho) is listed as “Not Active”. Further, the Ki entry in data set [1] is recorded as “Not Active”.
With `CN1CCN(C2=Nc3cc(Cl)ccc3Nc3ccccc32)CC1` [CLOZAPINE], the IC50 result in data set [1], in data set [2] (insect cells), in data set [3], in data set [4], in data set [5] and in data set [7] (cho) was “Not Active” throughout. Besides, in data set [1], the Ki entry was “Not Active”.
Take `CC(C)NC[C@@H](O)COc1cccc2ccccc12` [DEXPROPRANOLOL]: the IC50 entry in data set [1], in data set [2] (insect cells), in data set [3], in data set [4], in data set [5] and in data set [6] (cho-k1) was “Not Active” each time. Besides, the IC50 result in data set [7] (cho) is “Not Active”. The Ki entry in data set [1] is “Not Active”.
In the case of `CC(C)NC[C@H](O)COc1cccc2ccccc12` [LEVOPROPRANOLOL], the IC50 entry in data set [1], in data set [2] (insect cells), in data set [3], in data set [4], in data set [5] and in data set [6] (cho-k1) was “Not Active” throughout. Moreover, in data set [7] (cho), the IC50 entry was “Not Active”. For the same compound, in data set [1], the Ki entry is given as “Not Active”.
In the case of `O=C(O)CCCCC1CCSS1` (stereo not drawn) [LIPOIC ACID, ALPHA], the IC50 result in data set [1], in data set [2] (insect cells), in data set [3], in data set [4], in data set [5] and in data set [6] (cho-k1) was “Not Active” in each case. Also, the IC50 entry in data set [7] (cho) was “Not Active”. In addition, in data set [1], the Ki entry is given as “Not Active”.
As to `CN(C)C(=O)C(CCN1CCC(O)(c2ccc(Cl)cc2)CC1)(c1ccccc1)c1ccccc1` [LOPERAMIDE], the IC50 result in data set [1], in data set [2] (insect cells), in data set [3], in data set [4], in data set [5] and in data set [6] (cho-k1) was “Not Active” throughout. Also, the IC50 result in data set [7] (cho) is reported as “Not Active”. Besides, the inhibitory constant (Ki) result in data set [1] is given as “Not Active”.
Regarding `Clc1ccc(COC(Cn2ccnc2)c2ccc(Cl)cc2Cl)c(Cl)c1` (configuration not stated) [MICONAZOLE], the IC50 entry in data set [1] is “Not Active”; in data set [2] (insect cells), “Not Active”; in data set [3] it was “Not Active”; in data set [4] it was “Not Active”; in data set [5], “Not Active”; in data set [6] (read-out: IC50), 4.34 µM. In addition, the IC50 in data set [7] (read-out: IC50) was determined as 4.84 µM. Further, the Ki result was “Not Active” in data set [1], 1.54 µM in data set [6] (read-out: Ki) and 1.61 µM in data set [7] (read-out: Ki).
In the case of `Oc1ccc2c3c1O[C@H]1[C@@H](O)CC[C@@]4(O)[C@@H](C2)N(CC2CCC2)CC[C@]314` [NALBUPHINE], the IC50 result in data set [2] (insect cells), in data set [3], in data set [4], in data set [5], in data set [6] (cho-k1) and in data set [7] (cho) was “Not Active” in each case.
As to `C[C@]12C=CC(=O)C=C1CC[C@@H]1[C@@H]2C(=O)C[C@@]2(C)[C@H]1CC[C@]2(O)C(=O)CO` [PREDNISONE], the IC50 entry in data set [2] (insect cells), in data set [3], in data set [4], in data set [5], in data set [6] (cho-k1) and in data set [7] (cho) was “Not Active” in each case.
In the case of `OCCOCCN1CCN(C2=Nc3ccccc3Sc3ccccc32)CC1` [QUETIAPINE], the IC50 entry in data set [1], in data set [2] (insect cells), in data set [3], in data set [4], in data set [5] and in data set [7] (cho) was “Not Active” in each case. Besides, the Ki result in data set [1] is reported as “Not Active”.
For `COC(=O)[C@H]1[C@H]2C[C@@H]3c4[nH]c5cc(OC)ccc5c4CCN3C[C@H]2C[C@@H](OC(=O)c2cc(OC)c(OC)c(OC)c2)[C@@H]1OC` [RESERPINE], the IC50 result in data set [1], in data set [2] (insect cells), in data set [3], in data set [4], in data set [5] and in data set [6] (cho-k1) was “Not Active” each time. The IC50 result in data set [7] (cho) is given as “Not Active”. The Ki entry in data set [1] is “Not Active”.
For `O=C(O)c1ccccc1O` [SALICYLIC ACID], the IC50 entry in data set [1], in data set [2] (insect cells), in data set [3], in data set [4], in data set [5] and in data set [6] (cho-k1) was “Not Active” each time. For the same compound, the IC50 entry in data set [7] (cho) is “Not Active”. Moreover, in data set [1], the Ki result is given as “Not Active”.
As to `C[S+]([O-])c1ccc(-c2nc(-c3ccncc3)c(-c3ccc(F)cc3)[nH]2)cc1` (configuration not stated) [SB-203580], the IC50 result in data set [1], in data set [3], in data set [4], in data set [5], in data set [6] (cho-k1) and in data set [7] (cho) was “Not Active” throughout. Besides, in data set [1], the Ki entry is on record as “Not Active”.

(Values after ChEMBL document CHEMBL1909046, “DrugMatrix in vitro pharmacology data”.)
